Assay results taken from US10201564B2, “Methods of using inhaled nitric oxide gas for treatment of acute respiratory distress syndrome in children” (Mallinckrodt Hospital Products IP Limited, priority 2014, dated 2019).

Test system: pediatric subjects with acute hypoxemic respiratory failure (AHRF)
Assay: Pediatric AHRF study: adverse events, serious adverse events, deaths, discontinuations
Assay type: in vivo, human
Settings: 5 ppm
Procedure: This was a prospective, multicenter, randomized, double-blind, placebo-controlled, parallel-group study of the safety and efficacy of inhaled nitric oxide in pediatric subjects with acute hypoxemic respiratory failure (AHRF). The subjects were randomized to receive either 5 ppm inhaled nitric oxide or placebo.
Nitric Oxide for inhalation at 5 ppm was administered continuously into the inspiratory limb of the ventilator circuit in mechanically ventilated subjects using a blinded version of the INOvent® delivery system.
Subjects received 100% treatment gas (nitric oxide 5 ppm or placebo [nitrogen gas]) until Day 28 or extubation, whichever occurred first.
This was a prospective, multicenter, randomized, double-blind, placebo-controlled, Phase III study to assess the effects of nitric oxide for inhalation in the treatment of acute hypoxic respiratory failure (AHRF) in pediatric subjects. The study population consisted of male and female pediatric subjects, aged 44 weeks postconceptional age to 16 years age, who were admitted to the pediatric intensive care unit (PICU) and who required intubation because of AHRF. The inclusion/exclusion criteria are described in the Patients section below.
Standardized ventilatory management and weaning procedures were used. Ventilatory management was used based on an “open lung approach” using positive end-expiratory pressure (PEEP) to increase lung volume and limiting tidal volumes to reduce plateau pressures. Subjects received nitric oxide for inhalation at 5 ppm or placebo (100% Grade 5 nitrogen gas) into the inspiratory limb of the ventilator circuit using a blinded version of the INOvent® delivery system. The subjects were treated until Day 28 or extubation, whichever occurred first. Subjects were assessed daily using a spontaneous breathing trial, according to the institution's standard of care. Arterial blood gases (ABG), ventilator settings, methemoglobin, oxygenation index, systolic blood pressure, diastolic blood pressure, Pediatric Risk of Mortality (PRISM) III score, and subject positioning (prone or supine) were performed/recorded at specified times during the study. Selected centers also performed plasma cytokine assays, bronchoalveolar lavage fluid (BALF) assays, and a 6-month follow-up assessment.

[1] = AE with death as outcome, not suspected related to treatment
[2] = AE with death as outcome, suspected related to treatment
[3] = relationship to study treatment Not Suspected
[4] = relationship to study treatment Suspected

[N]=O [Nitric Oxide, nitric oxide]
0 (0.0) n (%): Hepatic failure [1] | Intracranial pressure increased [1] | Multi-organ failure [1] | Pancreatitis [1] | Pneumonia, aspergillus [1] | Pulmonary hemorrhage [1] | Renal failure [1] | Renal impairment [1] | Sepsis [1] | Bradycardia [2] | Brain edema [2] | Cardiac arrest [2] | Diabetic ketoacidosis [2] | Hemolytic anemia [2] | Hepatic failure [2] | Hypotension [2] | Intracranial pressure increased [2] | Multi-organ failure [2] | Pancreatitis [2] | Pneumonia, aspergillus [2] | Pulmonary hemorrhage [2] | Renal failure [2] | Renal impairment [2] | Sepsis [2]
compare favorably: safety profile versus placebo (methemoglobin levels, frequency of AEs, mortality rates) (in words)
0 (0.0)^: Adverse event where treatment was stopped: Sepsis, subjects n (%) (by actual treatment received) | Adverse event where treatment was stopped: Pulmonary hemorrhage, subjects n (%) [3] | Adverse event where treatment was stopped: Sepsis, subjects n (%) [3]
2: Total AEs leading to discontinuation of study treatment (n = 26) | Total SAEs (n = 26)
4: Total severe AEs (n = 26)
16 (61.5%) n (%): Subjects with one or more AEs (n = 26)
0 (00) ^: Adverse event where treatment was stopped: Pulmonary hemorrhage, subjects n (%) (by actual treatment received)
1 (3.8%) n (%): Hypotension [1]
1 (3.8%): Adverse event where treatment was stopped: Bradycardia, subjects n (%) (by actual treatment received) | Adverse event where treatment was stopped: Hypotension, subjects n (%) (by actual treatment received) | Serious adverse event: Bradycardia, subjects n (%) (by actual treatment received) | Serious adverse event: Hypotension, subjects n (%) (by actual treatment received) | Adverse event where treatment was stopped: Bradycardia, subjects n (%) [3] | Adverse event where treatment was stopped: Hypotension, subjects n (%) [3] | Serious adverse event: Bradycardia, subjects n (%) [3] | Serious adverse event: Hypotension, subjects n (%) [3]
52: Total AEs (n = 26, counted by dictionary-derived term)
no more likely: likelihood to experience adverse events versus placebo (in words)
safe and well tolerated: overall safety and tolerability in children with AHRF (in words)
0 (0)^ ^ n (%): Subjects with one or more AEs suspected to be related to study treatment (n = 26)
1 (3.9%) n (%): Subjects with one or more SAEs (n = 26) | Subjects withdrawn due to AEs (n = 26)
0: Total AEs suspected to be related to study treatment (n = 26) | Total SAEs or AEs leading to discontinuation of study treatment suspected to be related to study treatment (n = 26)
2 (7.7%) n (%): Subjects with one or more severe AEs (n = 26)
0 (0.0): Serious adverse event: Brain edema, subjects n (%) (by actual treatment received) | Serious adverse event: Cardiac arrest, subjects n (%) (by actual treatment received) | Serious adverse event: Cerebral artery occlusion, subjects n (%) (by actual treatment received) | Serious adverse event: Diabetic ketoacidosis, subjects n (%) (by actual treatment received) | Serious adverse event: Hemolytic anemia, subjects n (%) (by actual treatment received) | Serious adverse event: Hemopneumothorax, subjects n (%) (by actual treatment received) | Serious adverse event: Hemothorax, subjects n (%) (by actual treatment received) | Serious adverse event: Hepatic failure, subjects n (%) (by actual treatment received) | Serious adverse event: Hypoxia, subjects n (%) (by actual treatment received) | Serious adverse event: Intracranial pressure increased, subjects n (%) (by actual treatment received) | Serious adverse event: Multi-organ failure, subjects n (%) (by actual treatment received) | Serious adverse event: Pancreatitis, subjects n (%) (by actual treatment received) | Serious adverse event: Pneumonia, aspergillus, subjects n (%) (by actual treatment received) | Serious adverse event: Pulmonary hemorrhage, subjects n (%) (by actual treatment received) | Serious adverse event: Renal failure, acute, subjects n (%) (by actual treatment received) | Serious adverse event: Renal failure, subjects n (%) (by actual treatment received) | Serious adverse event: Renal impairment, subjects n (%) (by actual treatment received) | Serious adverse event: Respiratory failure, subjects n (%) (by actual treatment received) | Serious adverse event: Sepsis, subjects n (%) (by actual treatment received) | Serious adverse event: Subdural hematoma, subjects n (%) (by actual treatment received) | Serious adverse event: Unevaluable event, subjects n (%) (by actual treatment received) | Serious adverse event: Brain edema, subjects n (%) [3] | Serious adverse event: Cardiac arrest, subjects n (%) [3] | Serious adverse event: Cerebral artery occlusion, subjects n (%) [3] | Serious adverse event: Diabetic ketoacidosis, subjects n (%) [3] | Serious adverse event: Hemolytic anemia, subjects n (%) [3] | Serious adverse event: Hemopneumothorax, subjects n (%) [3] | Serious adverse event: Hemothorax, subjects n (%) [3] | Serious adverse event: Hepatic failure, subjects n (%) [3] | Serious adverse event: Hypoxia, subjects n (%) [3] | Serious adverse event: Intracranial pressure increased, subjects n (%) [3] | Serious adverse event: Multi-organ failure, subjects n (%) [3] | Serious adverse event: Pancreatitis, subjects n (%) [3] | Serious adverse event: Pneumonia, aspergillus, subjects n (%) [3] | Serious adverse event: Pulmonary hemorrhage, subjects n (%) [3] | Serious adverse event: Renal failure, acute, subjects n (%) [3] | Serious adverse event: Renal failure, subjects n (%) [3] | Serious adverse event: Renal impairment, subjects n (%) [3] | Serious adverse event: Respiratory failure, subjects n (%) [3] | Serious adverse event: Sepsis, subjects n (%) [3] | Serious adverse event: Subdural hematoma, subjects n (%) [3] | Serious adverse event: Unevaluable event, subjects n (%) [3] | Adverse event where treatment was stopped: Bradycardia, subjects n (%) [4] | Adverse event where treatment was stopped: Hypotension, subjects n (%) [4] | Adverse event where treatment was stopped: Pulmonary hemorrhage, subjects n (%) [4] | Adverse event where treatment was stopped: Sepsis, subjects n (%) [4] | Serious adverse event: Bradycardia, subjects n (%) [4] | Serious adverse event: Brain edema, subjects n (%) [4] | Serious adverse event: Cardiac arrest, subjects n (%) [4] | Serious adverse event: Cerebral artery occlusion, subjects n (%) [4] | Serious adverse event: Diabetic ketoacidosis, subjects n (%) [4] | Serious adverse event: Hemolytic anemia, subjects n (%) [4] | Serious adverse event: Hemopneumothorax, subjects n (%) [4] | Serious adverse event: Hemothorax, subjects n (%) [4] | Serious adverse event: Hepatic failure, subjects n (%) [4]
